Among the test systems are LOX IMVI; UO-31; NCI-H522; Hs-578T; OVCAR-5; COLO 205; KM12; MOLT-4; UACC-62; MDA-MB-231; PC-3; A549; Malme-3M; RPMI-8226; SK-OV-3; NCI-H23; SK-MEL-5; SK-MEL-28; SN12C; MCF7.
Common to all, as to assay: NCI anticancer screen, dose series, 48 h

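Grown in 96-well plates, cells were treated for 48 hours with each compound at five concentrations. Insufficient inhibition: endpoint recorded as highest concentration tested. At the GI50, growth is halved.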 Active and inactive are the calls of the source. Cut-off read from the data, not from the text of the source: active = GI50 up to about 1.1 µM and inactive = higher.

In the case of `Cc1ccccc1NC(=O)O/N=C(\Cl)C(C)C`, the GI50 was 1.55 µM (inactive) in the assay on LOX IMVI; 17.4 µM (inactive) with UO-31; 1.68 µM (inactive) with NCI-H522; 22.3 µM (inactive) in the assay on Hs-578T; 20.9 µM (inactive) in the assay on OVCAR-5; 1.75 µM (inactive) with COLO 205. In addition, the GI50 was 18.6 µM (inactive) with KM12; 2.74 µM (inactive) in the assay with MOLT-4; 14.9 µM (inactive) in the assay on UACC-62; 17.7 µM (inactive) in the assay on MDA-MB-231; 17.1 µM (inactive) in the assay on PC-3; 19.1 µM (inactive) with A549. Moreover, the GI50 with Malme-3M is 2.36 µM (inactive); with RPMI-8226 it was 1.86 µM (inactive); with SK-OV-3, 18.7 µM (inactive); in the assay with NCI-H23, 16.7 µM (inactive); in the assay on SK-MEL-5 it was 11 µM (inactive); in the assay with SK-MEL-28, 2.4 µM (inactive). Also, the GI50 in the assay on SN12C was 1.62 µM (inactive); with MCF7, 7.98 µM (inactive).
Take `O=C1OC(c2ccccc2)=N/C1=C\c1ccc(Cl)cc1`: the GI50 in the assay with LOX IMVI was > 100 µM (inactive); in the assay with UO-31, > 100 µM (inactive); in the assay with NCI-H522, 50.6 µM (inactive); with Hs-578T, > 100 µM (inactive); in the assay with OVCAR-5, > 100 µM (inactive); with COLO 205, > 100 µM (inactive). Moreover, the GI50 with KM12, in the assay on MOLT-4, with UACC-62, in the assay on MDA-MB-231, in the assay on PC-3 and in the assay with A549 was > 100 µM (inactive) throughout. Moreover, the GI50 in the assay with RPMI-8226, with SK-OV-3, in the assay with NCI-H23, in the assay on SK-MEL-5, in the assay on SK-MEL-28 and with SN12C was > 100 µM (inactive) each time. Moreover, the GI50 in the assay on MCF7 is > 100 µM (inactive).
Consider `O=C1C(c2c(O)[nH]c3ccc(S(=O)(=O)O)cc23)=Nc2ccccc21`, for which the GI50 in the assay with LOX IMVI, in the assay with UO-31, in the assay with NCI-H522, in the assay on Hs-578T, in the assay with OVCAR-5 and with COLO 205 was > 100 µM (inactive) each time. The GI50 in the assay with KM12, in the assay with MOLT-4, in the assay with UACC-62, in the assay on MDA-MB-231, in the assay with PC-3 and in the assay on A549 was > 100 µM (inactive) throughout. Also, the GI50 in the assay with Malme-3M, in the assay on RPMI-8226, in the assay on SK-OV-3, with NCI-H23, in the assay on SK-MEL-5 and with SK-MEL-28 was > 100 µM (inactive) in each case. Further, the GI50 with SN12C is > 100 µM (inactive); in the assay with MCF7, 53.5 µM (inactive).
As to `NNC(=O)C(O)C(O)C(O)CO` (stereo unspecified), the GI50 in the assay with LOX IMVI was 88.9 µM (inactive); with UO-31, > 100 µM (inactive); in the assay on NCI-H522, > 100 µM (inactive); in the assay with Hs-578T, > 100 µM (inactive); in the assay with OVCAR-5 it was > 100 µM (inactive); with COLO 205 it was > 100 µM (inactive). The GI50 with KM12, in the assay on UACC-62, with MDA-MB-231, in the assay on PC-3, with A549 and in the assay on Malme-3M was > 100 µM (inactive) each time. For the same compound, the GI50 with RPMI-8226, in the assay on SK-OV-3, with NCI-H23, in the assay with SK-MEL-5, in the assay with SK-MEL-28 and with SN12C was > 100 µM (inactive) each time. For the same compound, the GI50 in the assay with MCF7 was > 100 µM (inactive).
In the case of `Cc1c(-c2ccc(O)cc2)n(CCCCCCNCCOC(=O)NCCCc2ccc(N(CCCl)CCCl)cc2)c2ccc(O)cc12`, the GI50 is 1.5 µM (inactive) with LOX IMVI; 1.69 µM (inactive) in the assay with NCI-H522; 1.98 µM (inactive) with Hs-578T; 15.1 µM (inactive) in the assay on OVCAR-5; 2.64 µM (inactive) with COLO 205; 2.25 µM (inactive) in the assay with KM12. Also, the GI50 in the assay on MOLT-4 was 1.17 µM (inactive); in the assay on UACC-62, 1.79 µM (inactive); with MDA-MB-231, 1.83 µM (inactive); in the assay with PC-3 it was 2.47 µM (inactive); with A549 it was 1.88 µM (inactive); in the assay with Malme-3M, 1.6 µM (inactive). Further, the GI50 is 1.31 µM (inactive) in the assay on RPMI-8226; 10.2 µM (inactive) in the assay with SK-OV-3; 1.78 µM (inactive) in the assay on NCI-H23; 1.96 µM (inactive) in the assay on SK-MEL-5; 4.21 µM (inactive) in the assay on SK-MEL-28; 2.4 µM (inactive) in the assay on SN12C. Moreover, the GI50 in the assay on MCF7 is 0.766 µM (active).
Turning to `COc1ccc2c(ccc3c(COC(=O)NC(C)C)c(COC(=O)NC(C)C)n(C)c32)c1`, the GI50 with LOX IMVI is 4.62 µM (inactive); in the assay with UO-31, 5.98 µM (inactive); in the assay with NCI-H522, 2.36 µM (inactive); with Hs-578T, 13.7 µM (inactive); with OVCAR-5, 9.79 µM (inactive); with COLO 205, 10.8 µM (inactive). The GI50 was 11.5 µM (inactive) in the assay with KM12; 3.34 µM (inactive) in the assay with MOLT-4; 4.42 µM (inactive) with UACC-62; 16.3 µM (inactive) in the assay on MDA-MB-231; 11.1 µM (inactive) with PC-3; 11.3 µM (inactive) in the assay on A549. Moreover, the GI50 in the assay on Malme-3M is 2.54 µM (inactive); in the assay on RPMI-8226, 10 µM (inactive); in the assay with SK-OV-3, 16.7 µM (inactive); in the assay with NCI-H23, 3.5 µM (inactive); in the assay with SK-MEL-5, 13.2 µM (inactive); with MCF7 it was 4.75 µM (inactive).
On to `CN(N=O)C(=O)NNC(=O)N(C)N=O`, for which the GI50 was 44.4 µM (inactive) in the assay with LOX IMVI; 83.9 µM (inactive) in the assay on UO-31; 27 µM (inactive) in the assay on NCI-H522; > 100 µM (inactive) with Hs-578T; > 100 µM (inactive) in the assay on OVCAR-5; 50.1 µM (inactive) in the assay with COLO 205. The GI50 is > 100 µM (inactive) in the assay on KM12; 35.2 µM (inactive) in the assay with MOLT-4; 92.5 µM (inactive) with UACC-62; > 100 µM (inactive) in the assay with MDA-MB-231; 90.6 µM (inactive) in the assay on PC-3; > 100 µM (inactive) in the assay on A549. Also, the GI50 was 32.7 µM (inactive) in the assay on RPMI-8226; > 100 µM (inactive) in the assay with SK-OV-3; 71.8 µM (inactive) with NCI-H23; 67.6 µM (inactive) in the assay with SK-MEL-5; > 100 µM (inactive) with SK-MEL-28; > 100 µM (inactive) in the assay with SN12C. For the same compound, the GI50 with MCF7 is 35.6 µM (inactive).
As for `Cc1ccc(O)c(C2=CC(c3cccc(Br)c3)SC(=N)N2)c1` (stereo unspecified), the GI50 with LOX IMVI is 18.5 µM (inactive); in the assay with UO-31, 25 µM (inactive); in the assay on NCI-H522, 16 µM (inactive); with Hs-578T, 20.4 µM (inactive); with OVCAR-5, 29.5 µM (inactive); with COLO 205 it was 17.5 µM (inactive). Further, the GI50 in the assay with KM12 was 27 µM (inactive); with MOLT-4, 18.9 µM (inactive); in the assay on UACC-62, 17.1 µM (inactive); in the assay on MDA-MB-231 it was 25.8 µM (inactive); with PC-3, 26.1 µM (inactive); in the assay with A549, 25.8 µM (inactive). Moreover, the GI50 with Malme-3M is 25.2 µM (inactive); in the assay with RPMI-8226, 18 µM (inactive); in the assay with SK-OV-3 it was 28.8 µM (inactive); in the assay on NCI-H23, 25.6 µM (inactive); with SK-MEL-5 it was 17 µM (inactive); in the assay on SN12C it was 20.8 µM (inactive). In addition, in the assay with MCF7, the GI50 was 23.3 µM (inactive).
As to `Cc1cc(C)c2c(-c3ccccc3)cc(=O)[nH]c2c1`, the GI50 in the assay with LOX IMVI, in the assay on NCI-H522, in the assay on Hs-578T, in the assay with OVCAR-5, in the assay with COLO 205 and with KM12 was > 100 µM (inactive) in each case. Moreover, the GI50 with MOLT-4, with UACC-62, with MDA-MB-231, in the assay on PC-3, with A549 and with Malme-3M was > 100 µM (inactive) in each case. Moreover, the GI50 with RPMI-8226, in the assay on SK-OV-3, in the assay with NCI-H23, with SK-MEL-5, with SK-MEL-28 and with SN12C was > 100 µM (inactive) each time. Also, the GI50 in the assay on MCF7 is > 100 µM (inactive).
In the case of `CC(=O)NC1C(OC(C)C(=O)NC(C(=O)NC(CCC(=O)NCCCNC2c3ccccc3Nc3cccc([N+](=O)[O-])c32)C(N)=O)C(C)C)C(O)C(CO)OC1(C)OCc1ccccc1` (stereo unspecified), the GI50 in the assay with LOX IMVI was 1.47 µM (inactive); in the assay with UO-31, 1.25 µM (inactive); with NCI-H522 it was 0.637 µM (active); in the assay on Hs-578T it was 1.64 µM (inactive); in the assay with OVCAR-5, 3.94 µM (inactive); with COLO 205, 0.556 µM (active). Besides, the GI50 with KM12 was 1.77 µM (inactive); in the assay with MOLT-4, 0.355 µM (active); in the assay with UACC-62, 0.577 µM (active); with MDA-MB-231, 0.54 µM (active); in the assay with PC-3, 1.37 µM (inactive); with A549, 0.399 µM (active). Besides, the GI50 in the assay on Malme-3M was 1.12 µM (inactive); with RPMI-8226, 0.353 µM (active); with SK-OV-3, 1.67 µM (inactive); in the assay on NCI-H23, 1.61 µM (inactive); with SK-MEL-5, 0.198 µM (active); with SN12C, 0.822 µM (active). In the assay on MCF7, the GI50 is 0.343 µM (active).
